Reference: US5117830A, “Method of determining viability of tissue” (priority 1990, dated 1992)
Where two headings read alike, the source gives them in different places. Blank lines part the entries; values can stand above or below the compound they belong to.

Key:
[1] = target: T1, A1 receptors (Rattus norvegicus, UniProt P25099); test: Prevention of R-PIA-induced inhibition of adenylate cyclase in rat fat cell membranes; type: biochemical
T1 sequence (P25099 1-326): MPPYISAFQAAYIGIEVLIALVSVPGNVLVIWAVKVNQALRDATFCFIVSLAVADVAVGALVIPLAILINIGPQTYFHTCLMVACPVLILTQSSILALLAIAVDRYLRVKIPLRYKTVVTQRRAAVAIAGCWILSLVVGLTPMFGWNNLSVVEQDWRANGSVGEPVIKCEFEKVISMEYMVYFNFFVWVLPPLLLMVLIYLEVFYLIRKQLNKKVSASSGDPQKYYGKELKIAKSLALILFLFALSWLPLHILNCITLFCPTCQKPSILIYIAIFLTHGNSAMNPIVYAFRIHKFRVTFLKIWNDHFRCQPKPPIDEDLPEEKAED
Method: (§1) For activity at A1 receptors, compounds were tested as inhibitors of the binding of N^6 -R-[^3 H]-Phenylisopropyladenosine in rat brain membranes and for their ability to prevent R-PIA-induced inhibition of adenylate cyclase in rat fat cell membranes.

[2] = tested on: patients; conditions: in vivo; cited from earlier work
[3] = tested on: coronary artery; conditions: cited from earlier work
[4] = tested on: rat heart rate and blood pressure; test: In vivo rat heart rate and blood pressure
Method: Rats were anesthetized with urethan and blood pressure was monitored via a carotid cannula. Drug injections were made intravenously through a jugular cannula. Blood pressure, EGC, and heart rate were recorded on a Grass polygraph.

[5] = cited from earlier work
[6] = target: T2, A2 receptors (Homo sapiens, UniProt P29274); test: Antagonism of NECA-stimulated adenylate cyclase in human platelet membranes; type: biochemical
T2 construct: membranes of human platelets; from tissue; host or cells: human platelets (membranes)
T2 sequence (P29274 whole entry): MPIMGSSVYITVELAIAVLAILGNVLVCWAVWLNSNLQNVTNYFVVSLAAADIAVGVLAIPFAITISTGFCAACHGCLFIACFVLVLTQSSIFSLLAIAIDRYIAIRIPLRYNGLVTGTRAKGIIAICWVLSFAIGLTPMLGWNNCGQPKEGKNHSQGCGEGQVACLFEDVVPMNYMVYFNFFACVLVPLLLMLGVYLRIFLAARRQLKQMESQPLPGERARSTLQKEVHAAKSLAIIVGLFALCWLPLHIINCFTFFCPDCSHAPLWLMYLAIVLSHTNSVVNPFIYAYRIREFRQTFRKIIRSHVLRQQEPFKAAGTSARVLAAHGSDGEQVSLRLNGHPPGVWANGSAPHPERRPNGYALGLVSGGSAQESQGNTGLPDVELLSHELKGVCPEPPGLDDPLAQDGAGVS

[7] = tested on: A2 adenosine receptors; test: Antagonism of adenosine agonists in decreasing contractile tone of guinea pig taenia caecum (A2); conditions: for antagonism of the effects of adenosine agonists in relaxing the taenia caecum: guinea pig taenia caecum; for selectivity for A1 adenosine receptors: lack of competitive antagonism in taenia caecum
Method: Taenia from the guinea pig caecum were cut into lengths of 1.5-2 cm. The tissues were suspended in a 20 ml organ bath containing de Jalon's solution that was gassed with 95% O2 +5% CO2 and maintained at 31° C. The resting tension was 1.5 g. The contractile response was measured isotonically.
(§2) The ability of the compounds to antagonize the effects of agonists was analyzed using modified Schild plots.

[8] = target: T3, A1 adenosine receptors (Cavia porcellus, UniProt P47745); test: Antagonism of adenosine agonists in reducing force of contraction of guinea pig atrium (A1); conditions: for competitive antagonism at adenosine receptors in the atria / basal force of contraction in the atria: guinea pig atria
T3 construct: The left atria from male guinea pigs were isolated; from tissue; host or cells: guinea pig left atrium (whole tissue in organ bath)
T3 sequence (P47745 1-326): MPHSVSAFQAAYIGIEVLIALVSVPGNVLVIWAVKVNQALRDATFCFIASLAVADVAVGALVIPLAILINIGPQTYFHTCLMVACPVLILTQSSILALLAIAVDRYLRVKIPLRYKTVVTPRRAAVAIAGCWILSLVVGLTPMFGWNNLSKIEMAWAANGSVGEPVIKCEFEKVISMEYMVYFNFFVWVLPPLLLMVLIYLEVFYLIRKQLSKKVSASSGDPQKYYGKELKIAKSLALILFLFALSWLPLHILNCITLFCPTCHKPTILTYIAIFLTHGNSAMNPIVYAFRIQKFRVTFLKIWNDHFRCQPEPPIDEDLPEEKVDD
Method: The left atria from male guinea pigs were isolated, suspended between two punctate electrodes, and placed in a 20 ml organ bath that contained Krebs-Hensileit solution that was continuously gassed with 95% O2 +5% CO2 and maintained at 31° C. The resting tension was one gram. The atria were stimulated electrically at 1 Hz, 1 msec duration pulses at supramaximal voltage. The force of contraction was recorded isometrically.
as §2

[9] = target: T1, A1 receptors; test: Inhibition of N^6 -R-[^3 H]-phenylisopropyladenosine binding in rat brain membranes; set-up: rat brain membranes; from tissue; host or cells: rat brain (membranes); conditions: for Ki: (D) Rat Brain Membranes, read-out: Ki vs [^3 H] PIA (Binding), A1 Effects
Method: as §1

[10] = tested on: rat cortical A1 receptors; test: Displacement of [^3 H]-CHA from rat cortical A1 receptors; type: binding; conditions: Table 4
Method: Varying concentrations of test compounds were incubated with the appropriate radioligand and membrane source for 1 hr at room temperature.
Assays were terminated by filtration over Whatman GF/B filters that had been pre-soaked with 0.1% polyethyleneimine using a 24 port Brandell cell hawester. The filters were washed three times with 3 ml of ice cold buffer and transferred to plastic scintillation vials to which 4 ml of Beckman Ready-Protein scintillation cocktail was added. The tubes were shaken and counted in a Beckman 3801 scintillation counter that converted cpm to dpm.
Data were analyzed by utilizing the Ligand commercial computer program (Munson and Rodbard, 1980).
Male Sprague Dawley rats were killed by decapitation and the brains removed. The cerebral cortices were homogenized in 50 mm Tris; 2mm MgCl2 (pH 7.4), and centrifuged at 40,000×g for 10 minutes. […] The homogenate was centrifuged, washed once, resuspended to a protein concentration of 5-10 mg/ml and frozen at -70° C. until use.

[11] = tested on: A2 receptors; conditions: vs N^6 -substituted analogs; cited from earlier work
[12] = target: T4, A2 receptors (Rattus norvegicus, UniProt P30543); test: Antagonism of NECA-stimulated adenylate cyclase in rat PC12 membranes; type: biochemical; conditions: read-out: KB vs NECA Stimulation (Adenylate Cyclase), A2 Effects; (B) Rat PC12 Membranes
T4 construct: NECA-stimulated adenylate cyclase
T4 sequence (P30543 whole entry): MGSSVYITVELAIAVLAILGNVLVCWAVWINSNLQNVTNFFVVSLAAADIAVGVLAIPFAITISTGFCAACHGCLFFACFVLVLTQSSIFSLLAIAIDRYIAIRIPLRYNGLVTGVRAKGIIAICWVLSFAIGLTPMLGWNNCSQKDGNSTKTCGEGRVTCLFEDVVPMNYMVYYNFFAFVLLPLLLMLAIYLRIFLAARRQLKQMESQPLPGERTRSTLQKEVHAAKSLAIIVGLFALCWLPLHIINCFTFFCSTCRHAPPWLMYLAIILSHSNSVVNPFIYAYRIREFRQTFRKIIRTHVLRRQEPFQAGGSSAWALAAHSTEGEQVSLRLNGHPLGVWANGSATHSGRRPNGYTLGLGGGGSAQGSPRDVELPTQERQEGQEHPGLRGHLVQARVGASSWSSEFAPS
Method: as §1, with “membranes. For activity at A2 receptors, compounds were tested as antagonists of NECA-stimulated adenylate cyclase in membranes of human platelets and rat PC12 cells.” for “membranes.”

[13] = tested on: adenosine receptors; conditions: cited from earlier work
[14] = anesthetized rats, high doses of adenosine
[15] = prior administration, NECA as agonist

Compound: Nc1ncnc2c1ncn2[C@@H]1O[C@H](CO)[C@@H](O)[C@H]1O [Adenosine, reference compound]
side effects [2]: a number of cardiovascular, respiratory, central nervous system, and gastrointestinal side effects | heart rate, ventilation and airway resistance [3]: increases heart rate, and stimulates ventilation but does not alter airway resistance | vasodilation / coronary blood flow [3]: potent vasodilator, except in the kidney | heart block [4, 14]: At high doses, adenosine causes heart block | P-R interval of the ECG ([4]; anesthetized rats, intravenous): concomitant increase in the P-R interval | blood pressure ([4]; anesthetized rats, intravenous): dose dependent decrease in blood pressure | heart rate ([4]; anesthetized rats, intravenous): dose dependent decrease in blood pressure and heart rate | half-life ([5]; in vivo): less than two

Compound: Cn1cnc2c(N[C@H]3C[C@H]4CC[C@@H]3C4)ncnc21 (relative stereo) [compound 0861, N^6-(endo-2-norbornyl)-9-MA]
effects of subsequently administered adenosine on all parameters (blood pressure, heart rate, P-R interval) ([4]; anesthetized rats, antagonist given before adenosine): attenuated the effects of subsequently administered adenosine on all parameters measured | adenosine-induced heart block [4, 14]: substantially reduced | NECA-induced decrease in blood pressure [4, 15]: minimally affecting the NECA-induced decrease in blood pressure | effects of NECA on the heart [4, 15]: attenuated the effects of NECA on the heart | selectivity in vivo ([4]; rat): cardioselective adenosine receptor antagonist in vivo | selectivity for A1 receptors over A2 receptors [10]: 170 fold | A1 /A2 ([10]; ratio of Ki values): 5.89 × 10^-3 | antagonism of the effects of adenosine agonists in relaxing the taenia caecum [7]: did not competitively antagonize | selectivity for A1 adenosine receptors [7]: selective for A1 adenosine receptors | selectivity towards the A1 adenosine receptor / rank of potency ([8]; Table 2 compounds): the most potent antagonist | competitive antagonism at adenosine receptors in the atria [8]: competitive antagonists

Compound: CCNC(=O)[C@H]1O[C@@H](n2cnc3c(N)ncnc32)[C@H](O)[C@@H]1O [NECA, 5'-N-ethylcarboxamido-adenosine]
potency at A2 receptors [11]: more potent than N^6 -substituted analogs

Compound: Cn1c(=O)c2[nH]c(-c3ccccc3)nc2n(C)c1=O [8-phenyltheophylline (8-PT), 8-phenyltheophylline, reference compound]
receptor selectivity [13]: non-selective adenosine receptor antagonist | antagonism of the effects of adenosine agonists in relaxing the taenia caecum [7]: did antagonize the effects of agonists at low concentrations | sensitization of the tissue ([7]; high concentrations, larger response to agonist): Sensitization is also observed when using high concentrations

Compound: Cn1c(=O)c2c(ncn2C)n(C)c1=O [caffeine]
antagonism at adenosine receptors [13]: best known antagonists at adenosine receptors

Compound: OCCN(CCO)c1nc(N2CCCCC2)c2nc(N(CCO)CCO)nc(N3CCCCC3)c2n1 [Dipyridamole, dipyridamole]
side effects [2]: rare but potentially serious side effects which include myocardial ischemia, cardiac arrhythmia, and sudden death | vasodilation / coronary blood flow [3]: increase in coronary blood flow | half-life compared with adenosine ([5]; dipyridamole): significantly longer half-life

More lines, now with the values ahead:

Kb [1]: 23 µM
Compound: C[C@@H](Cc1ccccc1)Nc1ncnc2c1ncn2C [compound 0986, N^6 -S-1-phenyl-2-propyl-9-MA]

potency relative to 9-methyladenine at A2 receptors ([6]; human platelet assay): fivefold more potent | antagonism of the effects of adenosine agonists in relaxing the taenia caecum [7]: did not competitively antagonize | selectivity for A1 adenosine receptors [7]: selective for A1 adenosine receptors | competitive antagonism at adenosine receptors in the atria [8]: competitive antagonists | Ki [9]: 0.54 µM | potency relative to 9-methyladenine at A1 receptors ([9]; A1 receptors): at least 100 fold
Compound: Cn1cnc2c(NC3CCCC3)ncnc21 [compound 0840, N^6-cyclopentyl-9-MA]

basal force of contraction in the atria [8]: increases in basal force of contraction | competitive antagonism at adenosine receptors in the atria [8]: competitive antagonists
Compound: CCC(Cc1cccs1)Nc1ncnc2c1ncn2C (stereo not drawn) [N^6-1-(2-thienyl)-2-butyl-9-MA]

Ki [9]: 0.94 µM
Compound: Cn1cnc2c(NC3CCCCC3)ncnc21 [N^6 -Cyclohexyl-9-MA]

Kb ([6]; read-out: KB vs NECA Stimulation (Adenylate Cyclase), A2 Effects, (A) Human Platelet Membranes): 45 µM | Kb ([1]; (C) Rat Fat Cell Membranes, read-out: KB vs PIA INHIBITION (Adenylate Cyclase), A1 Effects): 9 µM | Ki [9]: 2.5 µM | Kb [12]: 56 µM
Compound: N^6 -Methylcylopentyl-9-MA

antagonism of the effects of adenosine agonists in relaxing the taenia caecum [7]: did not competitively antagonize | selectivity for A1 adenosine receptors [7]: selective for A1 adenosine receptors | basal force of contraction in the atria [8]: increases in basal force of contraction | competitive antagonism at adenosine receptors in the atria [8]: competitive antagonists
Compound: CCC(CC)Nc1ncnc2c1ncn2C [N^6-3-Pentyl-9-MA]
